Values after ≈ are worked out from the molar mass of the structure shown.
What was measured:
HCT-15 = test: Antiproliferative activity against human HCT-15 cells assessed as reduction in cell viability incubated for 48 hrs by CytoX cell viability assay; assay type: functional, cell-based; conditions: HCT-15, 48 h
MCF7 [1] = test: Antiproliferative activity against human MCF7 cells assessed as reduction in cell viability incubated for 48 hrs by CytoX cell viability assay; assay type: functional, cell-based; conditions: MCF7, 48 h
K562 = test: Antiproliferative activity against human K562 cells assessed as reduction in cell viability incubated for 48 hrs by CytoX cell viability assay; assay type: functional, cell-based; conditions: K562, 48 h
HeLa = test: Antiproliferative activity against human HeLa cells assessed as reduction in cell viability incubated for 48 hrs by CytoX cell viability assay; assay type: functional, cell-based
DU-145 = test: Antiproliferative activity against human DU-145 cells assessed as reduction in cell viability incubated for 48 hrs by CytoX cell viability assay; assay type: functional, cell-based; conditions: DU-145, 48 h
Hyalomma lusitanicum = test: Anti-insecticidal activity against Hyalomma lusitanicum Koch larvae assessed as inhibition of larval growth; assay type: functional; conditions: for LC50: Hyalomma lusitanicum, read-out: LD50 (the source's name)
HEp-2 = test: Cytotoxicity against human HEp-2 cells assessed as inhibition of cell growth; assay type: functional; conditions: read-out: ED50 (the source's name)
Plasmodium falciparum [2] = test: Antimalarial activity against Sulfadoxine-resistant Plasmodium falciparum W2; assay type: functional, organism-based
Plasmodium falciparum [3] = test: Antimalarial activity against chloroquine-sensitive Plasmodium falciparum D10 incubated for 48 hrs; assay type: functional, organism-based; conditions: D10, 48 h
Plasmodium falciparum [4] = test: Antimalarial activity against Sulfadoxine-sensitive Plasmodium falciparum FCR3; assay type: functional, organism-based
Plasmodium falciparum [5] = test: Antimalarial activity against Sulfadoxine-sensitive Plasmodium falciparum HB3; assay type: functional, organism-based
Plasmodium falciparum [6] = test: Antimalarial activity against […] incubated for 48 hrs; assay type: functional, organism-based; conditions: K1, 48 h
Plasmodium falciparum [7] = test: Antimalarial activity against Sulfadoxine-resistant Plasmodium falciparum 3D7; assay type: functional, organism-based
Plasmodium falciparum [8] = test: Antimalarial activity against Sulfadoxine-sensitive Plasmodium falciparum D6; assay type: functional, organism-based
[9] = Induction of apoptosis in human multiple myeloma cell; assay type: functional, cell-based
MDA-MB-231 = test: Cytotoxicity against human MDA-MB-231 cells assessed as inhibition of cell growth incubated for 48 hrs by SRB assay; assay type: functional, cell-based; conditions: MDA-MB-231, 48 h
PC-3 = test: Cytotoxicity against human PC-3 cells assessed as inhibition of cell growth incubated for 48 hrs by SRB assay; assay type: functional, cell-based; conditions: PC-3, 48 h
MCF7 [10] = test: Cytotoxicity against human MCF7 cells assessed as inhibition of cell growth incubated for 48 hrs by SRB assay; assay type: functional, cell-based; conditions: MCF7, 48 h
MG-63 [11] = test: Antiproliferative activity against human MG-63 cells assessed as inhibition of cell growth by MTT assay; assay type: functional, cell-based
MG-63 [12] = test: Antiproliferative activity against human MG-63 cells assessed as reduction in cell viability by SRB assay; assay type: functional, cell-based
A2780 = test: Cytotoxicity against human A2780 cells assessed as inhibition of cell growth incubated for 96 hrs by SRB assay; assay type: toxicity, cell-based; conditions: A2780, 96 h

Compound `Cc1cc(=O)c2c(O)cc(OC[C@@H]3CO3)cc2o1` has an IC50 (HCT-15) of 17.5 µM, an IC50 (MCF7 [1]) of 36.2 µM and an IC50 (K562) of 8.03 µM. For the same compound, the IC50 (HeLa) was 11.9 µM and the IC50 (DU-145) was 7.58 µM.
`C/C1=C\CC2(OC2(C)C)C(=O)C/C(C)=C/CC1` (stereo unspecified) showed an LD90 (Hyalomma lusitanicum) of 2.43 mg/mL and an LC50 (Hyalomma lusitanicum) of 1210 µg/mL (≈ 5160 µM).
`Cc1cc(=O)c2c(OCC3CO3)cc(OCC3CO3)cc2o1` (stereo unspecified) gave an IC50 (HCT-15) of 12.1 µM, an IC50 (MCF7 [1]) of 6.5 µM and an IC50 (K562) of 6.3 µM. It also gave an IC50 (HeLa) of 5.4 µM and an IC50 (DU-145) of 7.3 µM.
With `C[C@@H]1C[C@H]2OC(=O)[C@@H](C)[C@H]2[C@H](O)[C@]2(C)C(=O)C3OC3[C@@H]12` (stereo partly specified) the EC50 (HEp-2) was 0.11 µg/mL (≈ 0.392 µM).
Work on `Cc1cc(=O)c2c(OC[C@H]3CO3)cc(OC[C@H]3CO3)cc2o1` yielded an IC50 (HCT-15) of 229 µM, an IC50 (MCF7 [1]) of 220 µM and an IC50 (K562) of 7.86 µM. The IC50 (HeLa) was 11.4 µM and the IC50 (DU-145) was 15.6 µM.
Compound `Fc1ccc([C@]23CC[C@](c4ccc(F)cc4)(OO2)[C@H]2O[C@H]23)cc1` has an IC50 (Plasmodium falciparum [2]) greater than 10 µM, an IC50 (Plasmodium falciparum [3]) of 0.08 µM and an IC50 (Plasmodium falciparum [4]) of 0.01 µM. The IC50 (Plasmodium falciparum [5]) was 0.01 µM, the IC50 (Plasmodium falciparum [6]) was 0.08 µM and the IC50 (Plasmodium falciparum [7]) was greater than 10 µM. For the same compound, the IC50 (Plasmodium falciparum [8]) was 0.01 µM.
Compound `C[C@@H]1C[C@H]2OC(=O)C(C3CO3)[C@H]2[C@H](O)[C@]2(C)C(=O)C3OC3[C@@H]12` (stereo partly specified) has an EC50 (HEp-2) of 0.11 µg/mL (≈ 0.357 µM).
In the case of `Cc1cc(=O)c2c(O)cc(OCC3CO3)cc2o1` (stereo unspecified), the IC50 (HCT-15) is reported as 18.3 µM, the IC50 (MCF7 [1]) is reported as 13.6 µM and the IC50 (K562) is reported as 143 µM. It also gave an IC50 (HeLa) of 17.7 µM and an IC50 (DU-145) of 20.9 µM.
Work on `COc1ccc2c(c1)C(=O)C1OC1(C)C2=O` (stereo unspecified) yielded an EC50 [9] of 3.5 µM.
`CC(C)=C1C/C=C(\C)CCCC2(C)OC2C1=O` (stereo unspecified) gave an LD90 (Hyalomma lusitanicum) of 2.98 mg/mL and an LC50 (Hyalomma lusitanicum) of 2320 µg/mL (≈ 9900 µM).
`C[C@]12CC[C@H]3[C@@H](C[C@@H]4O[C@@]45C[C@@H](O)CC[C@]35C)[C@@H]1CC(=O)OC2` showed an IC50 (MDA-MB-231) of 39.8 µM.
Work on `Cc1cccc([C@]23CC[C@](c4cccc(C)c4)(OO2)[C@H]2O[C@H]23)c1` yielded an IC50 (Plasmodium falciparum [2]) greater than 10 µM, an IC50 (Plasmodium falciparum [3]) of 0.08 µM and an IC50 (Plasmodium falciparum [4]) of 0.01 µM. For the same compound, the IC50 (Plasmodium falciparum [5]) was 0.01 µM, the IC50 (Plasmodium falciparum [6]) was 0.08 µM and the IC50 (Plasmodium falciparum [7]) was greater than 10 µM. It also gave an IC50 (Plasmodium falciparum [8]) of 0.01 µM.
Compound `C[C@]12CC[C@H]3[C@@H](C=CC4=CC(=O)[C@@H]5O[C@@H]5[C@@]43C)[C@@H]1CC(=O)OC2` has an IC50 (MDA-MB-231) of 16.4 µM, an IC50 (PC-3) greater than 100 µM and an IC50 (MCF7 [10]) greater than 100 µM.
With `CC1=CCC[C@]2(C)CC(=O)C3(C[C@@H]12)OC3(C)C` (stereo partly specified) the LD90 (Hyalomma lusitanicum) was 1.91 mg/mL and the LC50 (Hyalomma lusitanicum) was 230 µg/mL (≈ 981 µM).
In the case of `C[C@@H]1C[C@H]2OC(=O)C(CN(C)C)[C@H]2[C@H](O)[C@]2(C)C(=O)C3OC3[C@@H]12` (stereo partly specified), the EC50 (HEp-2) is reported as 0.11 µg/mL (≈ 0.34 µM).
With `C[C@@H]1CC[C@@H]([C@@]2(C)CO2)[C@H](OCc2ccccc2)C1` the IC50 (MG-63 [11]) was 100 µM and the IC50 (MG-63 [12]) was 100 µM.
Work on `Cc1cc(=O)c2c(OC[C@H]3CO3)cc(OC[C@@H]3CO3)cc2o1` yielded an IC50 (HCT-15) of 9.59 µM, an IC50 (MCF7 [1]) of 1.88 µM and an IC50 (K562) of 0.04 µM. For the same compound, the IC50 (HeLa) was 1.77 µM and the IC50 (DU-145) was 628 µM.
In the case of `C=C1C(=O)O[C@@H]2[C@H]3C(C)=CC[C@@]34O[C@@]4(C)CC[C@@H]12` [ARGLABIN], the IC50 (A2780) is reported as 12.6 µM.
`CC[C@@]1(O)C(=O)OCc2c1cc1n(c2=O)Cc2cc3ccccc3nc2-1` [CAMPTOTHECIN] gave an IC50 (HCT-15) of 1.59 µM, an IC50 (MCF7 [1]) of 2.8 µM and an IC50 (K562) of 2.69 µM. It also gave an IC50 (HeLa) of 6 µM and an IC50 (DU-145) of 1.99 µM.

Source: ChEMBL document CHEMBL5233251, “Epoxide containing molecules: A good or a bad drug design approach” (Eur J Med Chem, 2020)
